Assay results as given in patent US9346811B2, “6,7-dihydro-pyrazolo[1,5-a]pyrazin-4-ylamine derivatives useful as inhibitors of beta-secretase (BACE)” (JANSSEN PHARMACEUTICA NV, priority 2011, dated 2016).
Where a name gives a salt, the structure may show the parent alone. Read-outs that look alike come from different tables or passages of the source.

Tests used:
[1] = tested on: Aβtotal produced and secreted into the medium of human neuroblastoma SKNBE2 cells; test: Cellular αlisa assay in SKNBE2 cells, Aβtotal; assay type: cell-based; conditions: for IC50: Homo sapiens, SKNBE2, 18 h, read-out: Cellular αlisa assay in SKNBE2 cells Aβtotal pIC50 (converted)
Procedure: (§1) Cellular αlisa Assay in SKNBE2 Cells
(§2) In two αlisa assays the levels of Aβtotal and Aβ42 produced and secreted into the medium of human neuroblastoma SKNBE2 cells are quantified. The assay is based on the human neuroblastoma SKNBE2 expressing the wild type Amyloid Precursor Protein (hAPP695). The compounds are diluted and added to these cells, incubated for 18 hours and then measurements of Aβ42 and Aβtotal are taken. Aβtotal and Aβ42 are measured by sandwich αlisa. αlisa is a sandwich assay using biotinylated antibody AbN/25 attached to streptavidin coated beads and antibody Ab4G8 or cAb42/26 conjugated acceptor beads for the detection of Aβtotal and Aβ42 respectively. In the presence of Aβtotal or Aβ42, the beads come into close proximity. The excitation of the Donor beads provokes the release of singlet oxygen molecules that triggers a cascade of energy transfer in the Acceptor beads, resulting in light emission. Light emission is measured after 1 hour incubation (excitation at […] and emission at 615 nm).
(§3) A best-fit curve is fitted by a minimum sum of squares method to the plot of % Controlmin versus compound concentration.

[2] = molecular target: recombinant BACE1 protein (Homo sapiens, UniProt P56817); test: Biochemical FRET based assay; conditions: recombinant BACE1 1 μg/ml, 120 min, pH 5.0; for IC50: read-out: Biochemical FRET based assay pIC50 (converted)
Sequence of recombinant BACE1 protein (P56817 46-501): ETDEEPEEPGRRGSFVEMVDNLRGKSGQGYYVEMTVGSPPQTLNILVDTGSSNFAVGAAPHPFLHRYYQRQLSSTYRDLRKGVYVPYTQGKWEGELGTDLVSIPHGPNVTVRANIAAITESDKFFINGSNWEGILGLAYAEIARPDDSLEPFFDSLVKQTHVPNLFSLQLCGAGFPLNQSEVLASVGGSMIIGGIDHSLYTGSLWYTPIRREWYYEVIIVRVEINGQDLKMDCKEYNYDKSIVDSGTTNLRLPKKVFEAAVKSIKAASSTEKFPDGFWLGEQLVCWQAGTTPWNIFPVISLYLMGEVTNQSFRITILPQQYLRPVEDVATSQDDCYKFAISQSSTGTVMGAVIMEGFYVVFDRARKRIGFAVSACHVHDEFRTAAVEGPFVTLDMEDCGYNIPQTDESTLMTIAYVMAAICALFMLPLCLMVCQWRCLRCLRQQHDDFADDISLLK
Description: Biochemical FRET Based Assay
This assay is a Fluorescence Resonance Energy Transfer Assay (FRET) based assay. The substrate for this assay is an APP derived 13 amino acids peptide that contains the ‘Swedish’ Lys-Met/Asn-Leu mutation of the amyloid precursor protein (APP) β-secretase cleavage site. This substrate also contains two fluorophores: (7-methoxycoumarin-4-yl)acetic acid (Mca) is a fluorescent donor with excitation wavelength at 320 nm and emission at 405 nm and 2,4-Dinitrophenyl (Dnp) is a proprietary quencher acceptor. […] Upon cleavage by BACE1, the fluorophore Mca is separated from the quenching group Dnp, restoring the full fluorescence yield of the donor. The increase in fluorescence is linearly related to the rate of proteolysis (Koike H et al. J. Biochem. 1999, 126, 235-242). Briefly in a 384-well format recombinant BACE1 protein in a final concentration of 1 μg/ml is incubated for 120 min at room temperature with 10 μm substrate in incubation buffer (40 mM Citrate buffer pH 5.0, 0.04% PEG, 4% DMSO) in the absence or presence of compound. Next the amount of proteolysis is directly measured by fluorescence measurement at T=0 and T=120 (excitation at 320 nm and emission at 405 nm).

[3] = tested on: Aβ42 produced and secreted into the medium of human neuroblastoma SKNBE2 cells; test: Cellular αlisa assay in SKNBE2 cells, Aβ42; assay type: cell-based; conditions: for IC50: Homo sapiens, SKNBE2, 18 h, read-out: Cellular αlisa assay in SKNBE2 cells Aβ42 pIC50 (converted)
Procedure: as §1, §2, §3

[4] = SKNBE2 cells expressing hAPP695, 18 hours incubation

| SMILES | IC50 [2] | Cellular αlisa assay in SKNBE2 cells Aβtotal pIC50 [1, 4] | Cellular αlisa assay in SKNBE2 cells Aβ42 pIC50 [3, 4] | Biochemical FRET based assay pIC50 [2] | IC50 [1, 4] | IC50 [3, 4] | IC50 [1] | IC50 [3] |
| --- | --- | --- | --- | --- | --- | --- | --- | --- |
| C[C@@]1(c2cccc(-c3cncc(Cl)c3)c2)Cn2nccc2C(N)=N1 [Compound 1, (R)-6-[3-(5-chloro-pyridin-3-yl)-phenyl]-6-methyl-6,7-dihydro-pyrazolo[1,5-a]pyrazin-4-ylamine trifluoroacetate salt] | 525 nM | – | – | – | – | – | 100 nM | 93.3 nM |
| CC1(c2cc(NC(=O)c3ccn(C(F)F)n3)ccc2F)Cn2nc(C(F)F)cc2C(N)=N1 (stereo not drawn) [Compound 40] | – | 8.37 | 8.42 | 7.28 | – | – | – | – |
| CC1(c2cc(NC(=O)c3ncc(Cl)cc3Cl)ccc2F)Cn2nccc2C(N)=N1 (racemic) [Compound 14, rac-3,5-dichloro-pyridine-2-carboxylic acid [3-(4-amino-6-methyl-6,7-dihydro-pyrazolo[1,5-a]pyrazin-6-yl)-4-fluoro-phenyl]-amide] | 35.5 nM | – | – | – | 1.17 nM | 1.35 nM | – | – |
| CC1(c2cccc(NC(=O)c3ncc(Cl)cc3Cl)c2)Cn2nccc2C(N)=N1 (single isomer, unassigned) [Compound 5, (S*)-3,5-dichloro-pyridine-2-carboxylic acid [3-(4-amino-6-methyl-6,7-dihydro-pyrazolo[1,5-a]pyrazin-6-yl)-phenyl]-amide] | 37.2 nM | 8.55 | 8.59 | – | – | – | – | – |
| CC1(c2cccc(NC(=O)c3ccc(C#N)cn3)c2)Cn2ncc(Br)c2C(N)=N1 (racemic) [Compound 9, rac-5-cyano-pyridine-2-carboxylic acid [3-(4-amino-3-bromo-6-methyl-6,7-dihydro-pyrazolo[1,5-a]pyrazin-6-yl)-phenyl]-amide trifluorocetate salt] | 7940 nM | – | – | – | 871 nM | 1000 nM | – | – |
| Cc1nn2c(c1F)C(N)=NC(C)(c1cc(NC(=O)c3ccc(F)cn3)ccc1F)C2 (racemic) [Compound 41] | – | 7.67 | 7.69 | 6.93 | – | – | – | – |
| CC1(c2cccc(NC(=O)c3ncc(Cl)cc3Cl)c2)Cn2nc(C(F)(F)F)cc2C(N)=N1 (racemic) [Compound 10, rac-3,5-dichloro-pyridine-2-carboxylic acid [3-(4-amino-6-methyl-2-trifluoromethyl-6,7-dihydro-pyrazolo[1,5-a]pyrazin-6-yl)-phenyl]-amide] | 63.1 nM | – | – | – | 15.5 nM | 16.6 nM | – | – |
| Cc1nc(C(=O)Nc2ccc(F)c(C3(C)Cn4ncc(F)c4C(N)=N3)c2)co1 (stereo not drawn) [Compound 34] | – | 7.78 | 7.83 | 7.23 | – | – | – | – |

The next lines start with results.

| IC50 [2] | Cellular αlisa assay in SKNBE2 cells Aβtotal pIC50 [1, 4] | Cellular αlisa assay in SKNBE2 cells Aβ42 pIC50 [3, 4] | Biochemical FRET based assay pIC50 [2] | IC50 [1, 4] | IC50 [3, 4] | SMILES | IC50 [1] | IC50 [3] |
| --- | --- | --- | --- | --- | --- | --- | --- | --- |
| 25.7 nM | 7.21 | 7.17 | – | – | – | NC1=NC(c2cc(NC(=O)c3ccc(F)cn3)ccc2F)(C(F)F)Cn2nccc21 (single isomer, unassigned) [Compound 22, (R*)-5-fluoro-pyridine-2-carboxylic acid [3-(4-amino-6-difluoromethyl-6,7-dihydro-pyrazolo[1,5-a]pyrazin-6-yl)-4-fluoro-phenyl]-amide] | – | – |
| 83.2 nM | – | – | – | 2.45 nM | 3.24 nM | CC1(c2cccc(NC(=O)c3ccc(Cl)cn3)c2)Cn2nccc2C(N)=N1 (racemic) [Compound 2, rac-5-chloro-pyridine-2-carboxylic acid [3-(4-amino-6-methyl-6,7-dihydro-pyrazolo[1,5-a]pyrazin-6-yl)-phenyl]-amide] | – | – |
| – | 6.22 | 6.16 | 6.03 | – | – | CC1(c2cc(NC(=O)c3ccc(F)cn3)ccc2F)Cn2ncc(Cl)c2C(N)=N1 (stereo not drawn) [Compound 38] | – | – |
| – | 7.45 | 7.43 | 6.77 | – | – | COc1cnc(C(=O)Nc2cccc(C3(C)Cn4nc(C(F)(F)F)cc4C(N)=N3)c2)cn1 (racemic) [Compound 30] | – | – |
